Source: patent publication US20060111335A1, “Photoactivated anti-viral and anti-cancer agent” (priority 2002, published 2006)
Read-outs that look alike come from different tables or passages of the source.

Assays:
KB cells = experiment: Phototoxicity to KB tumor cells, MTT assay
Description: Photolysis with Tumor Cells. […] At the beginning of an experiment media was removed from all plates and the cells were washed with 1 mL of PBS or Hank's salt solution. Drug solution (2 mL) or buffer solution (2 mL) was added to each dish. […] Cells were incubated, with or without metal complex, for 4 hours. After incubation, the solutions were removed from the dishes and the dishes were washed with 1 mL of PBS or Hank's salt solution. A fresh 1 mL of PBS or Hank's salt solution was added to each dish and these were placed on a turntable that sat on the top part of the photolysis chamber. […] The plates were then incubated for 40-48 hours before a determination of the extent of cell toxicity by MTT assay.
Cells were incubated in 75 cm^2 culture flasks. They were grown in Dulbecco's Modified Eagles Medium (D-MEM) supplemented with 10% heat inactivated fetal bovine serum (FBS), 1% L-glutamine-penicillin-streptomycin and 1% amphotericin-B. When cells were not plated for use in an experiment, they were transferred when they were 75-100% confluent using the following procedure. Media was decanted from the flask. Cells were rinsed 1-2 times with 10 mL of Hank's Balanced salt solution. […] Trypsin-EDTA was then decanted and the cells were released from the wall of the flask by tapping the side of the flask. Released cells were suspended in 5 mL media and 1 mL of this suspension was placed in a new culture flasks containing 20 mL of fresh media. The remaining cells were discarded. A culture flask can be used for 3 transfers.
Usually 16-24 hours before a photolysis experiment, cells were plated in 35×10 mm tissue culture dishes and incubated at 37° C. until the experiment was begun. Cells were about 75-100% confluent in the 75 cm^2 culture flask when plated. After being washed and released from the flask as described above, cells were suspended in 40 mL media and 1.5 mL of suspension was placed in each dish.
The concentration of the solution was 70 μM.
The cell dishes were incubated with drug or Hanks balanced salt solution (1 mL) for 3 hours. After incubation, solutions were decanted from the plates and 1 mL of Hank's Balanced salt solution were placed in each. […] Following photolysis, Hank's Balanced salt solutions were decanted and 1 mL of fresh media was placed in each plate.
Plates were incubated for 65 hours and then analyzed for cell survival by MT assay. 5 mg/mL MTT solution in water was prepared and 100 μL of this solution was added to each plate and the plates were incubated for 1.5 hours. Purple crystals formed from live cells. Media was gently removed from plates using a Pasteur pipette, the purple crystals that remained at the bottom of the dish were dissolved in 6 mL of isopropanol.
Phototoxicity studies with long wavelength light (>400 nm). […]

[1] = Dark thermal aquation and thermal base hydrolysis; type: physicochemical; conditions: 80° C. with 10% NaOH
Description: A dissociation/addition mechanism is generally accepted as responsible for the substitution chemistry associated with a hexacoordinated Rh(III) ligand field triplet (Weiland et al., Inorg. Chem., 25:4893 (1986)). The dissociation step is due to the promotion of an electron from the t2g orbital to the eg orbital, which leads to significant weakening of the metal ligand bonds. (Hipps et al., Inorg. Chem., 13:1544 (1974)).

Calf thymus DNA = experiment: Dark association with DNA, UV-Visible titration (Example XI); type: binding; conditions: 50 mM pH 7 I=0.15 sodium phosphate buffer (physiological condition)
Description: Preparation of DNA solution. Calf thymus DNA (Sigma) was dissolved in 50 mM, pH 7, I=0.15 sodium phosphate buffer (Physiological condition) and sonicated. The purity of the DNA was checked by monitoring the absorption spectrum and the ratio of the absorbance at 260 to 280 nm. The ratio were within the acceptable purity margin (1.8±0.1). The concentration of the Calf thymus DNA per phosphate was determined spectrophotometrically: ε253=6600 for calf thymus DNA^1. The concentration was 2.13 E-3 M.
The resulting solution was diluted 4 times with phosphate buffer. […] 0, 50 μL, 150 μL, 200 μL, 300 μL, 350 μL and 500 μL of DNA solutions were added, mixed well with a small disposable needle, and spectra were recorded again. The concentration of the species, the apparent absorbance at 337 nm, and the apparent extinction coefficients at 337 nm were determined from the absorptions spectra and tabulated in Table 1.
The apparent binding constant, Kapp was determined from the plot of [DNA]/Δεapp versus [DNA], where Δεapp=εf−εapp and Δε=εf−εb^2, where εb and εf correspond to the extinction coefficient of the DNA-bound form of the OCTBP derivatives and the extinction coefficient of the DNA-unbound OCTBP derivatives, respectively. […] Cb=(εfCtotal−Aobserved)/Δε The concentration of the DNA-unbound OCTBP derivatives (Cf) can be determined by Cf=Ctotal−Cb […]

[2] = tested on: calf thymus DNA than BSA protein; experiment: In vitro kinetic and thermodynamic studies of affinity, DNA versus protein; type: binding
[3] = Reversed phase HPLC elution on C8 column as measure of hydrophobicity; type: physicochemical; conditions: 45% acetonitrile in 100 mM ammonium acetate pH 5.4
Description: Reversed phase high performance liquid chromatography (RP-HPLC) was carried out on C8 columns. Compounds were tested using 20%, 30% and 45% acetonitrile in 100 mM ammonium acetate at pH 5.4 for elution on a C8 column, with the intention of achieving an elution time of about 15 minutes. It was expected that the more hydrophobic a compound, the higher the acetonitrile content one would need for the eluent.

M109 cells = experiment: Phototoxicity to M109 tumor cells, MTT assay; type: cell-based, mouse; conditions: OCTBP, 55 μM (FIG. 10)
Description: (§1) Photolysis with Tumor Cells.
Procedures for cell maintenance, cell plating, drug incubation, photolysis and MTT assay are all same as that used for the KB cell lines. A small amount of dark toxicity was observed (about 15%). A considerable amount of killing occurs with light alone after 30 and 40 minutes of irradiation (FIG. 10).

[4] = Photodestruction (photoaquation) with visible light >500 nm, HPLC analysis; type: physicochemical; conditions: 0.1 mM aqueous, 8 hours under argon
Description: Aqueous solutions (3 mL, 0.1 mM) of the Rh complexes were irradiated for 8 hours under argon using a 450 W Hanovia medium pressure mercury lamp filtered through a uranium yellow glass (cut-off<330 nm) and a 1.5 cm 0.5% (w/v) aqueous solution of K2Cr2O7 (0% transmittance≦500 nm). Photodestruction of the metal complexes was followed by HPLC analysis.

GN4 cells = experiment: Phototoxicity to GN4 tumor cells, MTT assay; type: cell-based, canine
Description: as §1
Media was decanted from the flask. […] Trypsin-EDTA was then decanted and the flask was incubated at 37° C. for 8 minutes. […] Released cells were suspended in 5 mL of media and shaken well. […] The remaining cells were discarded.
Cells were plated, incubated with the drug, and photolysis was conducted as for the KB cell lines.

cell membrane = experiment: Cell uptake / passage through the cell membrane
Description: OCTBP uptake by KB cells. 11 mg of OCTBP was dissolved in 40 mL of PBS buffer. The solution was vortex stirred for 5 minutes to completely dissolve the solid. The solution was sterile filtered through a 0.2μ nylon syringe filter. The concentration of the solution was determined by measuring the UV absorption at 353 nm (ε353nm=1565 M^−1cm^−1).
Once the cells were 75% confluent media was decanted from the flasks and 8 mL of drug solutions were added to three flasks and 8 mL of PBS buffer solution was added to the control flask. The flasks were incubated at 37° C. for 15, 30 and 45 minutes. Control flask was incubated for 45 minutes. When the flasks were removed, they were washed with 6×10 mL of PBS buffer solution. All the liquid was carefully decanted from the flasks. 1 mL of lysing buffer (1% triton X-100) was added to each of the four flasks. The walls of the flasks were rinsed using disposable pipettes. Once all the contents of the flasks were placed into a 1.5 mL disposable centrifuge tubes (each flask yielded ˜1.2 mL), the tubes were centrifuged at 6000 rpm and at 4° C. for 30 minutes on the Fisher Model 59V high-speed centrifuge. BCA Assay was done to establish the amount of cells in each flask.
Rh content of each flask was determined using an inductively coupled plasma (ICP) instrument (AtomScan16, Thermo Elemental, Franklin, Mass.). From each centrifuge tube 1 mL was pipetted and 370 μL of concentrated HCl was added to form a 10% solution. The samples were heated in a hot water bath at 70° C. for 30 minutes. The samples were centrifuged again and the supernatant liquid was diluted to 8 mL by adding nano-pure water. The samples were analyzed for Rh content by ICP.

cells = experiment: Phototoxicity, summary statement of Example XII; type: cell-based
φX-174 plasmid DNA = experiment: Photonicking of φX-174 plasmid DNA, gel electrophoresis; type: biochemical; conditions: Example IX, dark and upon exposure to light
Description: Photolysis with φX-174 Plasmid DNA. Metal complex solutions (with or without quenchers) were saturated with oxygen or argon prior to irradiation. The solutions were further degassed after being mixed with the plasmid. The final solution concentrations were: DPPZPHEN ([…]), φX-174 plasmid DNA (205 μM in base pairs), superoxide dismutase (25 μg/mL), 2-propanol (0.5 M), mannitol (6.25 mM), histidine (8 mM).
Experiments were conducted as described in Example X to evaluate the amount photonicking that occurred in the dark and upon exposure to light for 37TMBP, 56TMBP, OCTBP, BISNMe2, TMOBP, TIOBP, TPBP, BISTAP and BISDPPZ.

[5] = cited from earlier work
DNA = conditions: dark; cited from earlier work
cell = conditions: cited from earlier work
protein = conditions: cited from earlier work
bacteriophage φ6 = conditions: cited from earlier work
nucleic acid = conditions: cited from earlier work
Sindbis virus = conditions: cited from earlier work

CC1=C[N]2c3c4c(ccc3=C1C)=C(C)C(C)=C[N]4[Rh+]21([Cl])([Cl])[N]2C=C(C)C(C)=c3ccc4c(c32)[N]1C=C(C)C=4C.[Cl-] [OCTBP, cis-dichlorobis(3,4,7,8-tetramethyl-1,10-phenanthroline) rhodium(III) chloride]
cell death (KB cells; OCTBP 55 μM, >400 nm light, 60 minutes): 40% | dark toxicity (KB cells; OCTBP 70 μM): dark toxicity wasn't observed | dark toxicity (KB cells; OCTBP 80 μM): considerable amount of dark toxicity | thermal hydrolysis, rank order [1]: OCTBP≅37TMBP>BISPHEN | apparent (intrinsic) binding constant Kapp (Calf thymus DNA): 4.25 E3 M | affinity toward calf thymus DNA compared with BSA protein [2]: greater affinity toward calf thymus DNA than BSA protein | elution time [3]: about 15 minutes | dark toxicity (M109 cells): about 15% | photodestruction [4]: 9.3 % loss | photo-cell death (GN4 cells; OCTBP 55 μM, 311 nm): no photo-cell death occurred | cell death (GN4 cells; OCTBP 63 μM, >400 nm light, 60 minutes): 25% | photo-initiated cell death (GN4 cells; OCTBP 75 μM, 311 nm, 40 minutes): about 20% | ability to pass through the cell membrane (cell membrane): able to pass through the cell membrane | phototoxicity (cells): are phototoxic | photonicking of φX-174 plasmid DNA (φX-174 plasmid DNA): Only TPBP, BISTAP, BISDPPZ and BISDPPHEN complexes were found to photonick

[Cl-].[Cl][Rh+]12([Cl])([N]=c3c(c4ccccc4c4ccccc34)=[N]1)[N]1C=CC=c3ccc4c(c31)[N]2C=CC=4 [PHENPHI, cis-dichloro(1,10-phenanthroline)(9,10-phenathrenequinone diimine)rhodium(III) chloride]
stability ([5]; 37° C., phosphate-buffered saline (PBS) pH 7): decomposing | ligand exchange ([5]; acetate buffer pH 5): readily substitutes acetate for chloride ligand | stability ([5]; room temperature, Tris buffer pH 7): decomposing | Keq of dark association with DNA (DNA): 37000 M⁻¹ | photoinduced cell death (cell): substantial photoinduced cell death | penetration of the cell membrane (cell; without liposomes): does not require liposomes to penetrate the cell membrane | binding affinity for protein (protein): substantial binding affinity for protein | activity against bacteriophage φ6 (bacteriophage φ6): potent virucidal activity | photonuclease activity (nucleic acid): exhibited photonuclease activity | covalent binding to nucleic acid upon irradiation (nucleic acid; irradiated with light): covalently binds to DNA | phototoxicity / virucidal activity against Sindbis virus (Sindbis virus): potent virucidal activity
